Laboratory results published in PubChem BioAssay (NCI).
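Each compound was tested at five concentrations against cells in 96-well plates for 48 hours. GI50 = concentration required for 50% inhibition of growth. At the TGI there is no net growth.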

How the values were obtained:
Experiment in all cases: NCI tumour cell line growth inhibition, 48 h
786-0 renal = system: 786-0 renal
A498 renal = system: A498 renal
A549 NSCLC = system: A549 NSCLC
ACHN renal = system: ACHN renal
BT-549 breast = system: BT-549 breast
CAKI-1 renal = system: CAKI-1 renal
CCRF-CEM leukemia = system: CCRF-CEM leukemia
COLO 205 colon = system: COLO 205 colon
DU-145 prostate = system: DU-145 prostate
EKVX NSCLC = system: EKVX NSCLC
HCC-2998 colon = system: HCC-2998 colon
HCT-116 colon = system: HCT-116 colon
HCT-15 colon = system: HCT-15 colon
HL-60(TB) leukemia = system: HL-60(TB) leukemia
HOP-62 NSCLC = system: HOP-62 NSCLC
HOP-92 NSCLC = system: HOP-92 NSCLC
HS 578T breast = system: HS 578T breast
HT29 colon = system: HT29 colon
IGROV1 ovarian = system: IGROV1 ovarian
K-562 leukemia = system: K-562 leukemia
KM12 colon = system: KM12 colon
LOX IMVI melanoma = system: LOX IMVI melanoma
M14 melanoma = system: M14 melanoma
MALME-3M melanoma = system: MALME-3M melanoma
MCF7 breast = system: MCF7 breast
MDA-MB-231 breast = system: MDA-MB-231 breast
MDA-MB-435 = system: MDA-MB-435
MDA-MB-468 breast = system: MDA-MB-468 breast
MOLT-4 leukemia = system: MOLT-4 leukemia
NCI-H226 lung = system: NCI-H226 lung
NCI-H23 lung = system: NCI-H23 lung
NCI-H460 lung = system: NCI-H460 lung
NCI-H522 lung = system: NCI-H522 lung
NCI/ADR-RES ovarian = system: NCI/ADR-RES ovarian
OVCAR-3 ovarian = system: OVCAR-3 ovarian
OVCAR-4 ovarian = system: OVCAR-4 ovarian
OVCAR-5 ovarian = system: OVCAR-5 ovarian
OVCAR-8 ovarian = system: OVCAR-8 ovarian
PC-3 prostate = system: PC-3 prostate
RPMI-8226 leukemia = system: RPMI-8226 leukemia
RXF 393 renal = system: RXF 393 renal
SF-268 CNS = system: SF-268 CNS
SF-295 CNS = system: SF-295 CNS
SF-539 CNS = system: SF-539 CNS
SK-MEL-2 melanoma = system: SK-MEL-2 melanoma
SK-MEL-28 melanoma = system: SK-MEL-28 melanoma
SK-MEL-5 melanoma = system: SK-MEL-5 melanoma
SK-OV-3 ovarian = system: SK-OV-3 ovarian
SN12C renal = system: SN12C renal
SNB-19 CNS = system: SNB-19 CNS
SNB-75 CNS = system: SNB-75 CNS
SR leukemia = system: SR leukemia
SW-620 colon = system: SW-620 colon
T-47D breast = system: T-47D breast
TK-10 renal = system: TK-10 renal
U251 CNS = system: U251 CNS
UACC-257 melanoma = system: UACC-257 melanoma
UACC-62 melanoma = system: UACC-62 melanoma
UO-31 renal = system: UO-31 renal

Which results are given for `O=C(CSc1nnc(-c2ccc(-c3nc4ccc(Cl)cc4[nH]3)cc2)o1)Nc1ccc(Cl)cc1`?
GI50 (786-0 renal): 2.21 µM; TGI (786-0 renal): 5.57 µM; GI50 (A498 renal): 16.2 µM; TGI (A498 renal): 30.6 µM; GI50 (A549 NSCLC): 1.8 µM; TGI (A549 NSCLC): 3.97 µM; GI50 (ACHN renal): 1.91 µM; TGI (ACHN renal): 4.9 µM; GI50 (BT-549 breast): 2.15 µM; TGI (BT-549 breast): 6.23 µM; GI50 (CAKI-1 renal): 2.43 µM; TGI (CAKI-1 renal): 8.47 µM; GI50 (CCRF-CEM leukemia): 2.59 µM; TGI (CCRF-CEM leukemia): 11 µM; GI50 (COLO 205 colon): 11.8 µM; TGI (COLO 205 colon): 36 µM; GI50 (DU-145 prostate): 4.14 µM; TGI (DU-145 prostate): 15.6 µM; GI50 (EKVX NSCLC): 2.7 µM; TGI (EKVX NSCLC): 12.7 µM; GI50 (HCC-2998 colon): 11.2 µM; TGI (HCC-2998 colon): 27.3 µM; GI50 (HCT-116 colon): 2.92 µM; TGI (HCT-116 colon): 11.8 µM; GI50 (HCT-15 colon): 2.41 µM; TGI (HCT-15 colon): 11.6 µM; GI50 (HL-60(TB) leukemia): 2.82 µM; TGI (HL-60(TB) leukemia): 12.5 µM; GI50 (HOP-62 NSCLC): 1.62 µM; TGI (HOP-62 NSCLC): 3.69 µM; GI50 (HOP-92 NSCLC): 2.35 µM; TGI (HOP-92 NSCLC): 9.26 µM; GI50 (HS 578T breast): 2.27 µM; TGI (HS 578T breast): 7.65 µM; GI50 (HT29 colon): 3.2 µM; TGI (HT29 colon): 10.9 µM; GI50 (IGROV1 ovarian): 4.66 µM; TGI (IGROV1 ovarian): 18.4 µM; GI50 (K-562 leukemia): 2.19 µM; TGI (K-562 leukemia): 11.1 µM; GI50 (KM12 colon): 4.05 µM; TGI (KM12 colon): 18.5 µM; GI50 (LOX IMVI melanoma): 1.4 µM; TGI (LOX IMVI melanoma): 2.8 µM; GI50 (M14 melanoma): 3.05 µM; TGI (M14 melanoma): 11 µM; GI50 (MALME-3M melanoma): 1.85 µM; TGI (MALME-3M melanoma): 4.31 µM; GI50 (MCF7 breast): 2.82 µM; TGI (MCF7 breast): 13.3 µM; GI50 (MDA-MB-231 breast): 1.63 µM; TGI (MDA-MB-231 breast): 3.49 µM; GI50 (MDA-MB-435): 3.07 µM; TGI (MDA-MB-435): 10.6 µM; GI50 (MDA-MB-468 breast): 2.37 µM; TGI (MDA-MB-468 breast): 8.01 µM; GI50 (MOLT-4 leukemia): 2.81 µM; TGI (MOLT-4 leukemia): 14.3 µM; GI50 (NCI-H226 lung): 1.6 µM; TGI (NCI-H226 lung): 4.36 µM; GI50 (NCI-H23 lung): 1.99 µM; TGI (NCI-H23 lung): 4.74 µM; GI50 (NCI-H460 lung): 1.96 µM; TGI (NCI-H460 lung): 4.29 µM; GI50 (NCI-H522 lung): 1.85 µM; TGI (NCI-H522 lung): 5.47 µM; GI50 (NCI/ADR-RES ovarian): 4.01 µM; TGI (NCI/ADR-RES ovarian): 18.9 µM; GI50 (OVCAR-3 ovarian): 3.18 µM; TGI (OVCAR-3 ovarian): 10.6 µM; GI50 (OVCAR-4 ovarian): 4.48 µM; TGI (OVCAR-4 ovarian): 19.3 µM; GI50 (OVCAR-5 ovarian): 3.11 µM; TGI (OVCAR-5 ovarian): 14.6 µM; GI50 (OVCAR-8 ovarian): 2.04 µM; TGI (OVCAR-8 ovarian): 5.16 µM; GI50 (PC-3 prostate): 1.9 µM; TGI (PC-3 prostate): 5.37 µM; GI50 (RPMI-8226 leukemia): 3.99 µM; TGI (RPMI-8226 leukemia): 17.4 µM; GI50 (RXF 393 renal): 1.93 µM; TGI (RXF 393 renal): 5 µM; GI50 (SF-268 CNS): 3.04 µM; TGI (SF-268 CNS): 11.7 µM; GI50 (SF-295 CNS): 1.99 µM; TGI (SF-295 CNS): 5.23 µM; GI50 (SF-539 CNS): 1.67 µM; TGI (SF-539 CNS): 3.15 µM; GI50 (SK-MEL-2 melanoma): 3.02 µM; TGI (SK-MEL-2 melanoma): 13.1 µM; GI50 (SK-MEL-28 melanoma): 1.53 µM; TGI (SK-MEL-28 melanoma): 3.33 µM; GI50 (SK-MEL-5 melanoma): 2.92 µM; TGI (SK-MEL-5 melanoma): 11.2 µM; GI50 (SK-OV-3 ovarian): 5.93 µM; TGI (SK-OV-3 ovarian): 20.8 µM; GI50 (SN12C renal): 1.72 µM; TGI (SN12C renal): 4.03 µM; GI50 (SNB-19 CNS): 3.45 µM; TGI (SNB-19 CNS): 12.3 µM; GI50 (SNB-75 CNS): 2.33 µM; TGI (SNB-75 CNS): 8.66 µM; GI50 (SR leukemia): 1.85 µM; TGI (SR leukemia): 6.63 µM; GI50 (SW-620 colon): 2.94 µM; TGI (SW-620 colon): 14.1 µM; GI50 (T-47D breast): 2.8 µM; TGI (T-47D breast): 19.8 µM; GI50 (TK-10 renal): 15.6 µM; TGI (TK-10 renal): 32.2 µM; GI50 (U251 CNS): 1.96 µM; TGI (U251 CNS): 4.07 µM; GI50 (UACC-257 melanoma): 2.62 µM; TGI (UACC-257 melanoma): 10 µM; GI50 (UACC-62 melanoma): 1.7 µM; TGI (UACC-62 melanoma): 3.86 µM; GI50 (UO-31 renal): 3.59 µM; TGI (UO-31 renal): 15.8 µM
